# Reference: US20180015144A1, “AGONISTS OF THE NOGO-A S1PR PATHWAY FOR THE TREATMENT OF GLIOBLASTOMA” (UNIVERSITAT ZURICH, priority 2015, published 2018)
# B1: Nogo-66: inhibitory domain of Nogo, 66 aa; human aa 1055-1120 (SEQ ID NO 004), rat aa 1026-1091 (SEQ ID NO 003) (protein)
# chain: RIYKGVIQAIQKSDEGHPFRAYLESEVAISEELVQKYSNSALGHVNCTIKELRRLFLVDDLVDSLK
# Assays:
# S1PR2 = S1PR2 (Homo sapiens, UniProt O95136); settings: cited from earlier work
# other S1P receptors = settings: cited from earlier work
# GBM MVEC [1] = assay: Mean traction forces of adhered cells on nanopillars coated with Nogo-A proteins; assay type: cell-based, human; settings: pre-incubation with blocker 10 μM, Nogo-A Delta 20-coated nanopillars
# Method: (§1) For time-lapse- and force generation experiments, Vybrant/Dil (Invitrogen, 1:200)-labeled GBM MVEC (10^4 cells ml^−1) were added onto the nanopillar structures. The imaging process was started 1 h after seeding GBM MVEC on nanopillars. To calculate the traction force exerted by GBM MVEC on the nanopillar surface, the deflection of the nanopillar tip was imaged with confocal microscopy using a Leica confocal microscope SP5 with a63x, oil immersion, NA1.43 objective.
# (§2) During image acquisition, GBM MVEC were kept at 37° C. and 10% CO2. Following laser wavelengths were used to acquire images of nanopillar arrays and Di-labeled cells: 488 nm (nanopillar structures) and 546 nm (Dil).
# To quantitatively address the effects of coated Nogo-A proteins on adhesion between endothelial cells (GBM MVEC) and nanopillars, nanopillars were coated with Nogo-A Delta 20, Nogo-A Delta 21, or Fibronectin (blank condition).
# To calculate the total force applied by endothelial cells (GBM MVEC) on the substrates, the average displacement of 800-5000 nanopillars per single cell was used. Single GBM MVEC were imaged for a total time of 20 min, with a scanning ratio of 30 s per frame. For each condition, at least three individual GBM MVEC were analyzed.
# To address the role of Nogo-A receptors, endothelial cells were pre-incubated for 30 min before seeding with the pharmacological blocker of S1PR2 (JTE-013, 10 μM) (Tocris Bioscience), with the pharmacological blocker of S1PR1 and S1PR3 (VPC 23019, 10 μM) (Tocris Bioscience), or with the pharmacological blocker of S1PR1, 3, 4, and 5 (FTY720, 10 μM) (Tocris Bioscience).
# (§3) To quantitatively address the acute effects of soluble Nogo-A proteins on GBM MVEC retraction, Dil-labeled endothelial cells on nanopillars coated with 25 μg*ml^−1 human Fibronectin were treated 30 min after cell seeding with soluble Nogo-A Delta 20 and Nogo-A Delta 21 at 1 μM. Single GBM MVEC were then imaged for a total time of 1.5 h, with a scanning ratio of 30 s per frame. The nanopillar displacements were recorded as sequence images when the GBM MVEC applied forces on the nanopillar surface. For each condition, at least three individual GBM MVEC were analyzed. To address the role of Nogo-A receptors, endothelial cells were cultured for 30 min before incubating the cells for another 30 min with the pharmacological blocker of S1PR2 (JTE-013, 10 μM) (Tocris Bioscience), with the pharmacological blocker of S1PR1 and S1PR3 (VPC 23019, 10 μM) (Tocris Bioscience), or with the pharmacological blocker of S1PR1, 3, 4, and 5 (FTY720, 10 μM) (Tocris Bioscience). Then soluble Nogo-A Delta 20 (at 1 μM) or Nogo-A Delta 21 (at 1 μM) was added and lamellipodia and filopodia were imaged for 1h. The displacements (x) of the nanopillar tips induced by whole endothelial cells (for experiments with coated Nogo-A proteins) or by single endothelial filopodia (for experiments with soluble Nogo-A proteins) were measured using the program Diatrack (Powerful Particle Tracking, Semasopht). Finally, corresponding traction forces were calculated using the formula F=k*x, where k represents the spring constant of the nanopillars, 78.76 nN/μm.
# GBM MVEC filopodia = assay: Peak traction forces of filopodia on nanopillars, soluble Nogo-A proteins; assay type: cell-based, human; settings: pre-incubation with blocker 10 μM, Nogo-A Delta 20 1 μM
# Method: as §1, §2, §3
# GBM MVEC [2] = assay: Time-lapse imaging of lamellipodia and filopodia retraction on nanopillars, soluble Nogo-A proteins; assay type: cell-based, human; settings: pre-incubation with blocker 10 μM, Nogo-A Delta 20 1 μM
# Method: as §1, §2
# To quantitatively address the acute effects of soluble Nogo-A proteins on GBM MVEC retraction, Dil-labeled endothelial cells on nanopillars coated with 25 μg*ml^−1 human Fibronectin were treated 30 min after cell seeding with soluble Nogo-A Delta 20 and Nogo-A Delta 21 at 1 μM. Single GBM MVEC were then imaged for a total time of 1.5 h, with a scanning ratio of 30 s per frame. The nanopillar displacements were recorded as sequence images when the GBM MVEC applied forces on the nanopillar surface. For each condition, at least three individual GBM MVEC were analyzed. […] Finally, corresponding traction forces were calculated using the formula F=k*x, where k represents the spring constant of the nanopillars, 78.76 nN/μm.
# GBM MVECs = assay: Transwell migration assay (VEGF-A + fibronectin induced); assay type: cell-based, human; settings: for migration potential despite Nogo-A Delta 20 exposure, blocker alone: pre-incubation with blocker 10 μM
# Method: For the migration assays, the undersides of 24-well plate inserts (FluoroBlock, BD Falcon) were coated with 0.5 ml PBS containing 10 μg*ml^−1 fibronectin (recombinant human fibronectin, Biopur AG) and different concentrations of Nogo-A Delta 21, Nogo-A Delta 20 and Nogo-66 (R&D Systems) and incubated for 1 h at 37° C. Endothelial cells (GBM MVECs) were starved in migration medium (DMEM+0.25% BSA) 4 h before detachment with accutase (PAA Laboratories). Cells were resuspended in migration medium (1 Mio ml^−1) and labeled with calcein AM (Molecular Probes, 4 μg ml^−1), followed by washing with HBSS and resuspending in migration medium (125,000 cells ml^−1). The coated inserts were washed and the bottom chamber was prepared by adding migration medium with or without human VEGF-A (PeproTech Inc., 10 ng ml^−1). The inserts were then put in an empty 24-well plate (BD Falcon) and calcein AM-labeled endothelial cells (50,000 cells per insert) were added.
# The loaded inserts were transferred to the prepared cluster plate and incubated at 37° C., 5% CO2 for 4 h. A cell titration plate was prepared by adding different cell numbers (50,000/25,000/12,500/6,250/3,125/1,563/782 cells per well) in triplicates in 1.2 ml migration medium and incubated in parallel. The fluorescence was measured after 4 h by a cytofluorometer (Tean Infinite Pro 200) and the number of migrated cells was calculated based on the titration curve.
# To ask how co-signaling of Nogo-A Delta 20/Nogo-66 coated to the underside of transwell inserts and of its receptors affect cell migration, calcein-AM labeled GBM MVECs were incubated for 1 h with the pharmacological blockers of-the Nogo-A Delta 20 receptor S1PR2 (JTE-013, 1 μM, 10 μM), with the pharmacological blocker of S1PR1 and S1PR3 (VPC 23019, 10 μM) (Tocris Bioscience), and with the competitive inhibitor of the Nogo-66 receptor NgR1 (NEP1-40, 4.6 μg/ml) during calcein-AM labeling. After washing, the cell medium was again supplied with these pharmacological blockers, prior to cell addition in the upper chamber of the transwell insert.
# [3] = target: sphingosin-1 phosphate (S1P) receptor 2 (S1PR2) (human) (UniProt O95136); assay: cell-based or functional assay
# Sequence of sphingosin-1 phosphate (S1P) receptor 2 (S1PR2) (human) (O95136 whole entry): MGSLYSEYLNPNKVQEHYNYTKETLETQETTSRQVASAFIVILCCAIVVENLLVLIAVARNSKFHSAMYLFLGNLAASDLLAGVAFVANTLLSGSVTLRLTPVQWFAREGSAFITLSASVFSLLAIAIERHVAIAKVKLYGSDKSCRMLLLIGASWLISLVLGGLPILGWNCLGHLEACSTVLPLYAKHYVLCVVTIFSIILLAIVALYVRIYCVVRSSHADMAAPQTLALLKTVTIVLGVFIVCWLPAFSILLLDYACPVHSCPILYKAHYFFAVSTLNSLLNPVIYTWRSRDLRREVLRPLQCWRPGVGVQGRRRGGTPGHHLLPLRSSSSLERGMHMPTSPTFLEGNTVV
# Sequence of S1PR2 (O95136 whole entry): as above
molecule,measurement,setting,value
Cc1cc(C(=O)Cn2cc(C#N)ccc2=O)c(C)n1Cc1ccccc1 [CYM-5520],selectivity for S1PR2,S1PR2,highly selective
same,activation of other S1P receptors,other S1P receptors,do not activate
CCCCCCCCc1ccc(CCC(N)(CO)CO)cc1 [FTY720],effect of blocker on mean traction forces induced by Nogo-A Delta 20 coating,GBM MVEC [1],did not decrease
same,effect of blocker on average peak traction forces of Nogo-A Delta 20 treated filopodia,GBM MVEC filopodia,did also decrease
Cc1nn(C)c2nc(NNC(=O)Nc3cc(Cl)nc(Cl)c3)cc(C(C)C)c12 [JTE-013],effect of blocker on soluble Nogo-A Delta 20-induced retraction of lamellipodia and filopodia,GBM MVEC [2],counterbalanced
same,mean traction forces induced by Nogo-A Delta 20 coating after blocker,GBM MVEC [1],~4.1 nN
same,average peak traction forces of Nogo-A Delta 20 treated filopodia after blocker,GBM MVEC filopodia,~4.5 nN
same,"migration potential despite Nogo-A Delta 20 exposure, blocker alone",GBM MVECs,significantly increases
CCCCCCCCc1cccc(NC(=O)[C@H](N)COP(=O)(O)O)c1 [VPC 23019],effect of blocker on mean traction forces induced by Nogo-A Delta 20 coating,GBM MVEC [1],did not decrease
same,effect of blocker on average peak traction forces of Nogo-A Delta 20 treated filopodia,GBM MVEC filopodia,did also decrease
same,"inhibitor effect of Nogo-A Delta 20 on migration, combined blockers",GBM MVECs; combined pre-incubation of VPC 23019 with JTE-013,strong reduction of the inhibitor effect
same,"migration potential despite Nogo-A Delta 20 exposure, blocker alone",GBM MVECs,no effect on its own
Cc1ccc(Sc2ccc(C3SCCS3)cc2[N+](=O)[O-])cc1 [XAX-162],selectivity for S1PR2,S1PR2,highly selective
same,activation of other S1P receptors,other S1P receptors,do not activate
"NEP1-40: competitive antagonist of Nogo-66, inhibitor of the Nogo-66 receptor NgR1 (RIYKGVIQAIQKSDEGHPFRAYLESEVAISEELVQKYSNS; UniProt Q9NQC3 1055-1094, looked up, fragment)",migration potential upon exposure to Nogo-66 coating,GBM MVECs; pre-incubation with NEP1-40,significantly increases
Nogo-A Delta 20 (ligand),mean traction forces of GBM MVECs on Nogo-A Delta 20-coated nanopillars,[3],12 nN
same,"peak traction forces of GBM MVEC filopodia on nanopillars, soluble Nogo-A Delta 20 at 1 µM",[3],10 nN
B1,VEGF+FN-induced migration,"GBM MVECs; protein coated on the underside of the insert, different concentrations",dose-dependently inhibited
